Results: patent US11180462B2, “Microbiocidal oxadiazole derivatives” (SYNGENTA PARTICIPATIONS AG, priority 2015, dated 2021)

How the values were obtained:
[1] = system: Puccinia recondita f. Sp. Tritici; test: Fungicidal activity against Puccinia recondita f. sp. tritici / wheat / leaf disc preventative (brown rust); assay type: in vivo; details: foliar, 200 ppm in the applied formulation, wheat leaf segments, preventative, compared to untreated control leaf disks, read-out: disease control
How it was run: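 200 ppm spray on wheat cv. Kanzler leaf segments; spore inoculation +1 day; 19° C., 75% rh, 12 h/12 h light cycle; single rating of % control vs untreated at 7 to 9 days.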

[2] = system: Glomerella lagenarium (Colletotrichum lagenarium); test: Fungicidal activity against Glomerella lagenarium (Colletotrichum lagenarium) liquid culture / cucumber / preventative (anthracnose); assay type: cell-based; details: Colletotrichum orbiculare; 20 ppm in the applied formulation; liquid culture (PDB), growth inhibition measured photometrically after 3 to 4 days; compared to untreated control; read-out: disease control
How it was run: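 Percent activity against the untreated check was derived from photometric growth measurements made 2 to 7 days after conidia in potato dextrose broth were combined with compound at 20 ppm. Cultures were kept dark at 24 °C and 96% humidity.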

[3] = system: Puccinia recondita f. Sp. Tritici; test: Fungicidal activity against Puccinia recondita f. sp. tritici / wheat / leaf disc curative (brown rust); assay type: in vivo; details: foliar, 24 h, 200 ppm in the applied formulation, wheat leaf segments, curative (applied 1 day after inoculation), compared to untreated control leaf disks, read-out: disease control
Procedure: Leaf disks or leaf segments of various plant species are cut from plants grown in a greenhouse. The cut leaf disks or segments are placed in multiwell plates (24-well format) onto water agar. The leaf disks are sprayed with a test solution before (preventative) or after (curative) inoculation. Compounds to be tested are prepared as DMSO solutions (max. 10 mg/ml) which are diluted to the appropriate concentration with 0.025% Tween20 just before spraying. The inoculated leaf disks or segments are incubated under defined conditions (temperature, relative humidity, light, etc.) according to the respective test system. A single evaluation of disease level is carried out 3 to 14 days after inoculation, depending on the pathosystem. Percent disease control relative to the untreated check leaf disks or segments is then calculated.
Fungicidal Activity Against Puccinia recondita f. Sp. Tritici/Wheat/Leaf Disc Curative (Brown Rust)
Wheat leaf segments cv. Kanzler are placed on agar in multiwell plates (24-well format). The leaf segments are then inoculated with a spore suspension of the fungus. Plates were stored in darkness at 19° C. and 75% relative humidity. The formulated test compound diluted in water was applied 1 day after inoculation. The leaf segments were incubated at 19° C. and 75% relative humidity under a light regime of 12 hours light/12 hours darkness in a climate cabinet and the activity of a compound was assessed as percent disease control compared to untreated when an appropriate level of disease damage appears in untreated check leaf segments (6 to 8 days after application).
The following compounds at 200 ppm in the applied formulation give at least 80% disease control in this test when compared to untreated control leaf disks under the same conditions, which show extensive disease development.

CCC(COC)C(=O)N(Cc1ccc(-c2noc(C(F)(F)F)n2)cc1)CC1CC1 (stereo not drawn) [Compound 1.237, N-(cyclopropylmethyl)-2-(methoxymethyl)-N-[[4-[5-(trifluoromethyl)-1,2,4-oxadiazol-3-yl]phenyl]methyl]-butanamide]
≥ 80%: pest or weed control at 200 ppm [1] | inhibition of growth at 20 ppm [2] | pest or weed control at 200 ppm [3]

CC#CC(=O)N(OC)C(C)c1ccc(-c2noc(C(F)(F)F)n2)cc1 (stereo not drawn) [Compound 1.248, N-methoxy-N-[1-[4-[5-(trifluoromethyl)-1,2,4-oxadiazol-3-yl]phenyl]ethyl]but-2-ynamide]
≥ 80%: pest or weed control at 200 ppm [1] | inhibition of growth at 20 ppm [2] | pest or weed control at 200 ppm [3]

CON(C(=O)C1CCCCO1)C(C)c1ccc(-c2noc(C(F)(F)F)n2)cc1 (stereo not drawn) [Compound 1.249, N-methoxy-N-[1-[4-[5-(trifluoromethyl)-1,2,4-oxadiazol-3-yl]phenyl]ethyl]-tetrahydropyran-2-carboxamide]
≥ 80%: pest or weed control at 200 ppm [1] | inhibition of growth at 20 ppm [2] | pest or weed control at 200 ppm [3]

CON(C(=O)C1CSC1)C(C)c1ccc(-c2noc(C(F)(F)F)n2)cc1 (stereo not drawn) [Compound 1.259, N-methoxy-N-[1-[4-[5-(trifluoromethyl)-1,2,4-oxadiazol-3-yl]phenyl]ethyl]-thietane-3-carboxamide]
≥ 80%: pest or weed control at 200 ppm [1] | inhibition of growth at 20 ppm [2] | pest or weed control at 200 ppm [3]

COCCC(=O)N(OC)C(C)c1ccc(-c2noc(C(F)(F)F)n2)cc1 (stereo not drawn) [Compound 1.260, N,3-dimethoxy-N-[1-[4-[5-(trifluoromethyl)-1,2,4-oxadiazol-3-yl]phenyl]ethyl]-propanamide]
≥ 80%: pest or weed control at 200 ppm [1] | inhibition of growth at 20 ppm [2] | pest or weed control at 200 ppm [3]

COCCOCC(=O)N(OC)C(C)c1ccc(-c2noc(C(F)(F)F)n2)cc1 (stereo not drawn) [Compound 1.266, N-methoxy-2-(2-methoxyethoxy)-N-[1-[4-[5-(trifluoromethyl)-1,2,4-oxadiazol-3-yl]phenyl]ethyl]-acetamide]
≥ 80%: pest or weed control at 200 ppm [1] | inhibition of growth at 20 ppm [2] | pest or weed control at 200 ppm [3]

CON(C(=O)COC(C)=O)C(C)c1ccc(-c2noc(C(F)(F)F)n2)cc1 (stereo not drawn) [Compound 1.270, [2-[methoxy-[1-[4-[5-(trifluoromethyl)-1,2,4-oxadiazol-3-yl]phenyl]ethyl]-amino]-2-oxo-ethyl] acetate]
≥ 80%: pest or weed control at 200 ppm [1] | inhibition of growth at 20 ppm [2] | pest or weed control at 200 ppm [3]

CON(C(=O)C1OCCO1)C(C)c1ccc(-c2noc(C(F)(F)F)n2)cc1 (stereo not drawn) [Compound 1.276, N-methoxy-N-[1-[4-[5-(trifluoromethyl)-1,2,4-oxadiazol-3-yl]phenyl]ethyl]-1,3-dioxolane-2-carboxamide]
≥ 80%: pest or weed control at 200 ppm [1] | inhibition of growth at 20 ppm [2] | pest or weed control at 200 ppm [3]

CON(C(=O)C1CC1)C(C)c1ccc(-c2noc(C(F)(F)F)n2)cc1 (stereo not drawn) [Compound 1.279, N-methoxy-N-[1-[4-[5-(trifluoromethyl)-1,2,4-oxadiazol-3-yl]phenyl]ethyl]-cyclopropane-carboxamide]
≥ 80%: pest or weed control at 200 ppm [1] | inhibition of growth at 20 ppm [2] | pest or weed control at 200 ppm [3]

COCCCC(=O)N(OC)C(C)c1ccc(-c2noc(C(F)(F)F)n2)cc1 (stereo not drawn) [Compound 1.280, N,4-dimethoxy-N-[1-[4-[5-(trifluoro-methyl)-1,2,4-oxadiazol-3-yl]phenyl]ethyl]-butanamide]
≥ 80%: pest or weed control at 200 ppm [1] | inhibition of growth at 20 ppm [2] | pest or weed control at 200 ppm [3]

CCCON(Cc1ccc(-c2noc(C(F)(F)F)n2)cc1)C(=O)C(C)CC (stereo not drawn) [Compound 1.308, 2-methyl-N-propoxy-N-[[4-[5-(trifiuoromethyl)-1,2,4-oxadiazol-3-yl]phenyl]methyl]-butanamide]
≥ 80%: pest or weed control at 200 ppm [1] | inhibition of growth at 20 ppm [2] | pest or weed control at 200 ppm [3]

CC#CC(=O)N(CCOC)Cc1ccc(-c2noc(C(F)(F)F)n2)cc1 [Compound 1.323, N-(2-methoxyethyl)-N-[[4-[5-(trifluoromethyl)-1,2,4-oxadiazol-3-yl]phenyl]methyl]but-2-yaamide]
≥ 80%: pest or weed control at 200 ppm [1] | inhibition of growth at 20 ppm [2] | pest or weed control at 200 ppm [3]

CC=CC(=O)N(CCOC)Cc1ccc(-c2noc(C(F)(F)F)n2)cc1 [Compound 1.326, N-(2-methoxyethyl)-N-[[4-[5-(trifluoromethyl)-1,2,4-oxadiazol-3-yl]phenyl]methyl]but-2-enamide]
≥ 80%: pest or weed control at 200 ppm [1] | inhibition of growth at 20 ppm [2] | pest or weed control at 200 ppm [3]

COCCN(Cc1ccc(-c2noc(C(F)(F)F)n2)cc1)C(=O)COC [Compound 1.328, 2-methoxy-N-(2-methoxyethyl)-N-[[4-[5-(trifluoromethyl)-1,2,4-oxadiazol-3-yl]phenyl]methyl]-acetamide]
≥ 80%: pest or weed control at 200 ppm [1] | inhibition of growth at 20 ppm [2] | pest or weed control at 200 ppm [3]

CC=C(C)C(=O)N(CCOC)Cc1ccc(-c2noc(C(F)(F)F)n2)cc1 [Compound 1.330, N-(2-methoxyethyl)-2-methyl-N-[[4-[5-(trifluoromethyl)-1,2,4-oxadiazol-3-yl]phenyl]methyl]-but-2-enamide]
≥ 80%: pest or weed control at 200 ppm [1] | inhibition of growth at 20 ppm [2] | pest or weed control at 200 ppm [3]

COCCN(Cc1ccc(-c2noc(C(F)(F)F)n2)cc1)C(=O)C1CCCC1 [Compound 1.332, N-(2-methoxyethyl)-N-[[4-[5-(trifluoromethyl)-1,2,4-oxadiazol-3-yl]phenyl]methyl]-cyclopentane-carboxamide]
≥ 80%: pest or weed control at 200 ppm [1] | inhibition of growth at 20 ppm [2] | pest or weed control at 200 ppm [3]

COCCN(Cc1ccc(-c2noc(C(F)(F)F)n2)cc1)C(=O)C1=CCCC1 [Compound 1.333, N-(2-methoxyethyl)-N-[[4-[5-(trifluoromethyl)-1,2,4-oxadiazol-3-yl]phenyl]methyl]-cyclopentene-1-carboxamide]
≥ 80%: pest or weed control at 200 ppm [1] | inhibition of growth at 20 ppm [2] | pest or weed control at 200 ppm [3]

COCCN(Cc1ccc(-c2noc(C(F)(F)F)n2)cc1)C(=O)C1CSC1 [Compound 1.334]
≥ 80%: pest or weed control at 200 ppm [1] | inhibition of growth at 20 ppm [2] | pest or weed control at 200 ppm [3]

COCCN(Cc1ccc(-c2noc(C(F)(F)F)n2)cc1)C(=O)CC(C)C [Compound 1.336, N-(2-methoxyethyl)-3-methyl-N-[[4-[5-(trifluoromethyl)-1,2,4-oxadiazol-3-yl]phenyl]methyl]-butanamide]
≥ 80%: pest or weed control at 200 ppm [1] | inhibition of growth at 20 ppm [2] | pest or weed control at 200 ppm [3]

COCCOCC(=O)N(CCOC)Cc1ccc(-c2noc(C(F)(F)F)n2)cc1 [Compound 1.340, 2-(2-methoxyethoxy)-N-(2-methoxyethyl)-N-[[4-[5-(trifluoromethyl)-1,2,4-oxadiazol-3-yl]phenyl]methyl]-acetamide]
≥ 80%: pest or weed control at 200 ppm [1] | inhibition of growth at 20 ppm [2] | pest or weed control at 200 ppm [3]

C#CC(=O)N(CCOC)Cc1ccc(-c2noc(C(F)(F)F)n2)cc1 [Compound 1.347, N-(2-methoxyethyl)-N-[[4-[5-(trifluoromethyl)-1,2,4-oxadiazol-3-yl]phenyl]methyl]prop-2-ynamide]
≥ 80%: pest or weed control at 200 ppm [1] | inhibition of growth at 20 ppm [2] | pest or weed control at 200 ppm [3]

COCCN(Cc1ccc(-c2noc(C(F)(F)F)n2)cc1)C(=O)COC(C)=O [Compound 1.348, [2-[2-methoxyethyl-[[4-[5-(trifluoromethyl)-1,2,4-oxadiazol-3-yl]phenyl]methyl]-amino]-2-oxo-ethyl] acetate]
≥ 80%: pest or weed control at 200 ppm [1] | inhibition of growth at 20 ppm [2] | pest or weed control at 200 ppm [3]

COCCN(Cc1ccc(-c2noc(C(F)(F)F)n2)cc1)C(=O)c1ccoc1 [Compound 1.362, N-(2-methoxyethyl)-N-[[4-[5-(trifluoromethyl)-1,2,4-oxadiazol-3-yl]phenyl]methyl]-furan-3-carboxamide]
≥ 80%: pest or weed control at 200 ppm [1] | inhibition of growth at 20 ppm [2] | pest or weed control at 200 ppm [3]

COCCN(Cc1ccc(-c2noc(C(F)(F)F)n2)cc1)C(C)=O [Compound 1.364, N-(2-methoxyethyl)-N-[[4-[5-(trifluoromethyl)-1,2,4-oxadiazol-3-yl]phenyl]methyl]-acetamide]
≥ 80%: pest or weed control at 200 ppm [1] | inhibition of growth at 20 ppm [2] | pest or weed control at 200 ppm [3]
